The target in one assay is GST-Flk1 (UniProt P35918). The assay can be described thus: GST-FLK-1 bioassay (bio flkGST). In kind it is biochemical. The method, then: This assay analyzes the tyrosine kinase activity of GST-Flk1 on poly glu tyr peptides.
2. poly glu tyr 4:1, lyophilizate (Sigma Catalog # P0275). Prepare 1 mg/mL poly glu tyr in sterile PBS and store in 1 ml aliquots at −20° C.
3. Preparation of poly glu tyr (pEY) coated assay plates: Coat 2 μg/well of poly glu tyr (pEY) in 100 μL PBS at room temperature for 2 hours or at +4° C. overnight. Cover plates well to prevent evaporation.
4. PBS Buffer: To make 1 liter of a 1× working solution, mix […], 1.15 g NA2HPO4, 0.2 g KCl and 8 g NaCl in approx. 900 mL dH2O. When all reagents have dissolved, adjust the pH to 7.2 with HCl. Bring total volume to 1L with dH2O.
5. PBS-Tw Buffer: To 1L of PBS Buffer, add […] Tween-20. Stir until dissolved.
6. TBB-Blocking Buffer: To make one liter of a 1× working solution, mix 1.21 g TRIS, 8.77 g NaCl, 1 mL TWEEN-20 in approximately 900 mL dH2O. Adjust pH to 7.2 with HCl. Add 10 g BSA, stir to dissolve. Bring total volume to 1 L with dH2O. Filter to remove particulate matter.
7. 1% BSA in PBS: To make a 1× working solution, add 10 g BSA to approx. 990 mL PBS buffer, stir to dissolve. Adjust total volume to 1 L with PBS buffer, filter to remove particulate matter.
9. GST-Flk1cd purified from sf9 recombinant baculovirus transformation.
13. Kinase Dilution Buffer (KDB): Mix 10 mL Hepes (pH 7.5), 1 mL of 5 M NaCl, 40 μL of 100 mM NaVO4 and 0.4 mL of 5% BSA in dH2O with 88.56 mL of dH2O.
14. NUNC-96-well V bottom polypropylene plates Applied Scientific Catalog # AS-72092
15. EDTA: Mix 14.12 g ethylenediaminetetraacetic acid (EDTA) to approx. 70 mL dH2O. Add 10N NaOH until EDTA dissolves. Adjust pH to 8.0. Adjust total volume to 100 mL with dH2O.
16. 1° Antibody Dilution Buffer: Mix 10 mL of 5% BSA in PBS buffer with 89.5 mL TBSTw.
17. Anti-phosphotyrosine monoclonal conjugated to horseradish peroxidase (PY99 HRP, Santa Cruz Biotech).
18. 2,2′-Azino-bis(3-ethylbenzthiazoline-6-sulfonic acid (ABTS, Moss, Cat. No. ABST).
1. Coat Corning 96 well ELISA plates with 2 μg of polyEY peptide in sterile PBS as described in step 3 of Materials and Reagents.
2. Remove unbound liquid from wells by inverting plate. Wash once with TBSTw. Pat the plate on a paper towel to remove excess liquid.
3. Add 100 μL of 1% BSA in PBS to each well. Incubate, with shaking, for 1 hr. at room temperature.
5. Soak wells with 50 mM Hepes pH7.5 (150 μL/well).
6. Dilute test compound with dH2O/4% DMSO to 4 times the desired final assay concentration in 96-well polypropylene plates.
7. Add 25 μL diluted test compound to ELISA plate.
8. Add 25 μL of 40 mM MnCl2 with 4×ATP (2 μM) to all wells.
9. Add 25 μL 0.5 M EDTA to negative control wells.
10. Dilute GST-Flk1 0.005 μg (5 ng)/well in KDB. For 50 ml KDB add 100 μL of 0.050 mg/mL GST-Flk1 enzyme.
11. Add 50 μL of diluted enzyme to each well.
12. Incubate, with shaking, for 15 minutes at room temperature.
13. Stop reaction by adding 50 μL of 250 mM EDTA (pH 8.0).
14. Wash 3× with TBSTw and pat plate on paper towel to remove excess liquid.
15. Add 100 μL per well anti-phosphotyrosine HRP conjugate, 1:5,000 dilution in antibody dilution buffer. Incubate, with shaking for 90 min. at room temperature.
16. Wash as described above in step 14.
17. Add 100 μL of room temperature ABTS solution to each well.
18. Incubate, with shaking, for 10 to 15 minutes. Remove any bubbles.
19. Stop reaction by adding 20 μL of 10% SDS.
20. Read assay on Dynatech MR7000 ELISA reader: test filter at 410 nM; reference filter at 630 nM.

A further assay concerns the target T1, EGF Receptor (Homo sapiens, UniProt P00533).
T1 construct: expressed in transfected cells; host or cells: NIH 3T3/C7 (mouse fibroblasts engineered to express human EGF-R)
The assay can be described thus: bio EGF (EGF Receptor ELISA). In kind it is biochemical. The method, then:
EGF Receptor kinase activity in cells genetically engineered to express human EGF-R was measured as described below:
The following materials and reagents were used:
b. 05-101 (UBI) (a monoclonal antibody recognizing an EGFR extracellular domain).
c. Anti-phosphotyrosine antibody (anti-Ptyr) (polyclonal).
d. Detection antibody: Goat anti-rabbit lgG horse radish peroxidase conjugate, TAGO, Inc., Burlingame, Calif.
Keep solution in dark at 4° C. until used.
The following protocol was used:
1. […] Coated plates are good for up to 10 days when stored at 4° C.
2. On day of use, remove coating buffer and replace with blocking buffer (5% Carnation Instant Non-Fat Dry Milk in PBS). Incubate the plate, shaking, at room temperature (about 23° C. to 25° C.) for 30 minutes. Just prior to use, remove blocking buffer and wash plate 4 times with TBST buffer.
2. Choose dishes having 80-90% confluence for the experiment. Trypsinize cells and stop reaction by adding 10% CS DMEM medium. Suspend cells in DMEM medium (10% CS DMEM medium) and centrifuge once at 1000 rpm at room temperature for 5 minutes.
3. Resuspend cells in seeding medium (DMEM, 0.5% bovine serum), and count the cells using trypan blue. Viability above 90% is acceptable. Seed cells in DMEM medium (0.5% bovine serum) at a density of 10,000 cells per well, 100 μL per well, in a 96 well microtiter plate. Incubate seeded cells in 5% CO2 at 37° C. for about 40 hours.
1. Check seeded cells for contamination using an inverted microscope. Dilute drug stock (10 mg/ml in DMSO) 1:10 in DMEM medium, then transfer 5 μL to a test well for a final drug dilution of 1:200 and a final DMSO concentration of 1%. Control wells receive DMSO alone. Incubate in 5% CO2 at 37° C. for one hour.
2. Prepare EGF ligand: dilute stock EGF in DMEM so that upon transfer of 10 μL dilute EGF (1:12 dilution), 25 nM final concentration is attained.
3. Prepare fresh 10 ml HNTG* sufficient for 100 μL per well wherein HNTG* comprises: HNTG stock (2.0 mL), milli-Q H2O (7.3 mL), EDTA, 100 mM, pH 7.0 (0.5 mL), Na3VO4 0.5 M (0.1 mL) and Na4(P2O7), 0.2 M (0.1 mL).
5. After two hours incubation with drug, add prepared EGF ligand to cells, 10 μL per well, to yield a final concentration of 25 nM. Control wells receive DMEM alone. Incubate, shaking, at room temperature, for 5 minutes.
6. Remove drug, EGF, and DMEM. Wash cells twice with PBS. Transfer HNTG* to cells, 100 μL per well. Place on ice for 5 minutes. Meanwhile, remove blocking buffer from other ELISA plate and wash with TBST as described above.
7. With a pipette tip securely fitted to a micropipettor, scrape cells from plate and homogenize cell material by repeatedly aspirating and dispensing the HNTG* lysis buffer. Transfer lysate to a coated, blocked, and washed ELISA plate. Incubate shaking at room temperature for one hour.
8. Remove lysate and wash 4 times with TBST. Transfer freshly diluted anti-Ptyr antibody to ELISA plate at 100 μL per well. Incubate shaking at room temperature for 30 minutes in the presence of the anti-Ptyr antiserum (1:3000 dilution in TBST).
9. Remove the anti-Ptyr antibody and wash 4 times with TBST. Transfer the freshly diluted TAGO 30 anti-rabbit IgG antibody to the ELISA plate at 100 μL per well. Incubate shaking at room temperature for 30 minutes (anti-rabbit IgG antibody: 1:3000 dilution in TBST).
10. Remove detection antibody and wash 4 times with TBST. Transfer freshly prepared ABTS/H2O2 solution to ELISA plate, 100 μL per well. Incubate at room temperature for 20 minutes. ABTS/H2O2 solution: 1.2 μL 30% H2O2in 10 mL ABTS stock.
11. Stop reaction by adding 50 μL 5N H2SO4 (optional), and determine O.D. at 410 nm.
12. The maximal phosphotyrosine signal is determined by subtracting the value of the negative controls from the positive controls. The percent inhibition of phosphotyrosine content for extract-containing wells is then calculated, after subtraction of the negative controls.
A general note: ELISA stands for enzyme-linked immunosorbent assay.

13 compounds from US6706709B2, “Indolinone derivatives as protein kinase/phosphatase inhibitors” (Sugen, Inc., priority 2000, dated 2004) can be followed below.

T1 sequence (P00533 25-1210): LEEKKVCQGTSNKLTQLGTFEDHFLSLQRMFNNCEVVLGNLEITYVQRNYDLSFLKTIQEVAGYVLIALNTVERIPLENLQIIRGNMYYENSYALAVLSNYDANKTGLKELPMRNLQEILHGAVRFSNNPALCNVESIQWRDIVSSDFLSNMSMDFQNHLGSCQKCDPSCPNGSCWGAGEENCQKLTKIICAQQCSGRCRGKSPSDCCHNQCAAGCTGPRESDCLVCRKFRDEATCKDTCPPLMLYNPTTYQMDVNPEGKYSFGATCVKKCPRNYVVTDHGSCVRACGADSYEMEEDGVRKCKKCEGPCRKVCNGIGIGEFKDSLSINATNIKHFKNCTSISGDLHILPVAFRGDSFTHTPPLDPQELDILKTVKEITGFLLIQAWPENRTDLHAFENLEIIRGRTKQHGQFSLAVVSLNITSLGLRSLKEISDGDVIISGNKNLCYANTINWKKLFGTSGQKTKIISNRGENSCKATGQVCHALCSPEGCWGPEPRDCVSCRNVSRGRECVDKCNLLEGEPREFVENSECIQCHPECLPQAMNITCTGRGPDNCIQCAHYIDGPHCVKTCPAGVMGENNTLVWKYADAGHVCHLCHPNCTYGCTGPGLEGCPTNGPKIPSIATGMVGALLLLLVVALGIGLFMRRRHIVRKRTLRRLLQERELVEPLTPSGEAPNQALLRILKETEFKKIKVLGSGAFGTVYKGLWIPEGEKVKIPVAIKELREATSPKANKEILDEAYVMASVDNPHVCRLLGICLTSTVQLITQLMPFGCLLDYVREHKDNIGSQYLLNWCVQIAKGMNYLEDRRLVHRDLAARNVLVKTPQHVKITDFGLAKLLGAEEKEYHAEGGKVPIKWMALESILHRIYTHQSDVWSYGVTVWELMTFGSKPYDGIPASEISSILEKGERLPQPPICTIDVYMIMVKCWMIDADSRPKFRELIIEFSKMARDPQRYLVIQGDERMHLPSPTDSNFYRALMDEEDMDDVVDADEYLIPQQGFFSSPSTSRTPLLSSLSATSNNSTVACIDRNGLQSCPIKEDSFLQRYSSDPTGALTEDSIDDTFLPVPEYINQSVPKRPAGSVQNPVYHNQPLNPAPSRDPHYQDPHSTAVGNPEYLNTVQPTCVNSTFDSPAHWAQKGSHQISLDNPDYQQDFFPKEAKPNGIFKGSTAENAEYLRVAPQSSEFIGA

As for `O=C1Nc2ccc(S(=O)(=O)Nc3cccnc3)cc2C1=Cc1cc2cc(OCCN3CCCC3)ccc2[nH]1` [IN-045, 2-oxo-3-[5-(2-pyrrolidin-1-yl-ethoxy)-1H-indol-2-ylmethylene]-2,3-dihydro-1H-indole-5-sulfonic acid pyridin-3-ylamide], the IC50 against GST-Flk1 amounted to 120 nM; against EGF Receptor, 8020 nM.
Taken in the same sequence, the figures for `O=C1Nc2ccc(S(=O)(=O)N3CCc4ccccc4C3)cc2C1=Cc1cc2cc(OCCN3CCCC3)ccc2[nH]1` [IN-051, 5-(3,4-dihydro-1H-isoquinoline-2-sulfonyl)-3-[5-(2-pyrrolidin-1-yl-ethoxy)-1H-indol-2-ylmethylene]-1,3-dihydro-indol-2-one] were 370 nM and 3520 nM.
With `O=C1Nc2cc(-c3ccc(F)cc3)ccc2C1=Cc1cc2cc(OCCN3CCCC3)ccc2[nH]1` [IN-029, 6-(4-fluoro-phenyl)-3-[5-(2-pyrrolidin-1-yl-ethoxy)-1H-indol-2-ylmethylene]-1,3-dihydro-indol-2-one], the results for the IC50 against GST-Flk1 and on EGF Receptor were 760 nM and more than 20000 nM, respectively.
`CN(C)S(=O)(=O)c1ccc2c(c1)C(=Cc1cc3cc(OCCN4CCCC4)ccc3[nH]1)C(=O)N2` [IN-042, 2-oxo-3-[5-(2-pyrrolidin-1-yl-ethoxy)-1H-indol-2-ylmethylene]-2,3-dihydro-1H-indole-5-sulfonic acid dimethylamide]: the IC50 worked out at 1340 nM against GST-Flk1 and 7840 nM at EGF Receptor.
For `CCN(CC)CCCc1ccc2[nH]c(C=C3C(=O)Nc4ccc(-c5ccccc5)cc43)cc2c1` [IN-004, 3-[5-(3-diethylamino-propyl)-1H-indol-2-ylmethylene]-5-phenyl-1,3-dihydro-indol-2-one], the IC50 was determined as 470 nM against GST-Flk1 and 2570 nM on EGF Receptor.
Taken in the same sequence, the figures for `CC(C)NS(=O)(=O)c1ccc2c(c1)C(=Cc1cc3cc(OCCN4CCOCC4)ccc3[nH]1)C(=O)N2` [IN-055, 3-[5-(2-morpholin-4-yl-ethoxy)-1H-indol-2-ylmethylene]-2-oxo-2,3-dihydro-1H-indole-5-sulfonic acid isopropylamide] were 1500 nM and 3500 nM.
Taken in the same sequence, the figures for `COc1ccc(-c2ccc3c(c2)NC(=O)C3=Cc2cc3cc(OCCN4CCOCC4)ccc3[nH]2)cc1` [IN-035, 6-(4-methoxy-phenyl)-3-[5-(2-morpholin-4-yl-ethoxy)-1H-indol-2-ylmethylene]-1,3-dihydro-indol-2-one] were more than 20000 nM and more than 20000 nM.
For the compound `CN(C)CCOc1ccc2[nH]c(C=C3C(=O)Nc4ccccc43)cc2c1` [IN-010, 3-[5-(2-dimethylamino-ethoxy)-1H-indol-2-ylmethylene]-1,3-dihydro-indol-2-one], the IC50 against GST-Flk1 came to 350 nM; on EGF Receptor, 88800 nM.
`CC(C)NS(=O)(=O)c1ccc2c(c1)C(=Cc1cc3cc(OCCN4CCCC4)ccc3[nH]1)C(=O)N2` [IN-043, 2-oxo-3-[5-(2-pyrrolidin-1-yl-ethoxy)-1H-indol-2-ylmethylene]-2,3-dihydro-1H-indole-5-sulfonic acid isopropylamide]: the IC50 on GST-Flk1 came out at 270 nM; at EGF Receptor, 4350 nM.
As to `CNS(=O)(=O)c1ccc2c(c1)C(=Cc1c(C)[nH]c3ccccc13)C(=O)N2` [IN-069, 3-(2-methyl-1H-indol-3-ylmethylene)-2-oxo-2,3-dihydro-1H-indole-5-sulfonic acid methylamide], the IC50 was 12800 nM at GST-Flk1 and more than 100000 nM against EGF Receptor.
As to `O=C1Nc2ccc(Br)cc2C1=Cc1cc2cc(OCCN3CCCC3)ccc2[nH]1` [IN-014, 5-bromo-3-[5-(2-pyrrolidin-1-yl-ethoxy)-1H-indol-2-ylmethylene]-1,3-dihydro-indol-2-one], the values for the IC50 against GST-Flk1 and against EGF Receptor were 3 nM and 43500 nM, respectively.
Turning to `O=C1Nc2ccc(S(=O)(=O)Nc3ccccc3)cc2C1=Cc1cc2cc(OCCN3CCCC3)ccc2[nH]1` [IN-044, 2-oxo-3-[5-(2-pyrrolidin-1-yl-ethoxy)-1H-indol-2-ylmethylene]-2,3-dihydro-1H-indole-5-sulfonic acid phenylamide], the results for the IC50 at GST-Flk1 and against EGF Receptor were 180 nM and 1690 nM, respectively.
Consider `O=C1Nc2cccc(CCO)c2C1=Cc1cc2cc(OCCN3CCOCC3)ccc2[nH]1` [IN-033, 4-(2-hydroxy-ethyl)-3-[5-(2-morpholin-4-yl-ethoxy)-1H-indol-2-ylmethylene]-1,3-dihydro-indol-2-one], for which the IC50 is less than 9 nM against GST-Flk1 and 8200 nM at EGF Receptor.

A word on the IC50: it is the concentration that gives 50% inhibition. A lower IC50 goes with inhibition by little substance.
